Several values for one entry are separate records, joined by “and”; a condition that tells them apart may be missing. Equal entries are not always repeated. Where two headings read alike, the source gives them in different places. Some results are limits rather than exact numbers.

These results are taken from PMC7730441, “Acetylcholinesterase and butyrylcholinesterase inhibitory activities of khellactone coumarin derivatives isolated from Peucedanum japonicum Thurnberg” (Scientific Reports, 2020).

For data set [1], the system named is AChE. The note with it: cited from earlier work.
For data set [2], the system named is BChE. The conditions noted are these: cited from earlier work.
Data set [3] concerns LPS-stimulated RAW264.7 cells. More on the design: method as in PMID 31704444. The note with it: at 10 µg/µL; cited from earlier work.
Details of data set [4]: method as in PMID 31704444. The note with it: up to 10 µg/µL (i.e., ~ 25 mM); cited from earlier work.
In data set [5] the target is T1, AChE (Type VI-S; from Electrophorus electricus) (Electrophorus electricus, UniProt O42275).
T1 construct: AChE (Type VI-S; from Electrophorus electricus); purchased Sigma-Aldrich Type VI-S (catalogue number not given)
T1 sequence (O42275 24-633): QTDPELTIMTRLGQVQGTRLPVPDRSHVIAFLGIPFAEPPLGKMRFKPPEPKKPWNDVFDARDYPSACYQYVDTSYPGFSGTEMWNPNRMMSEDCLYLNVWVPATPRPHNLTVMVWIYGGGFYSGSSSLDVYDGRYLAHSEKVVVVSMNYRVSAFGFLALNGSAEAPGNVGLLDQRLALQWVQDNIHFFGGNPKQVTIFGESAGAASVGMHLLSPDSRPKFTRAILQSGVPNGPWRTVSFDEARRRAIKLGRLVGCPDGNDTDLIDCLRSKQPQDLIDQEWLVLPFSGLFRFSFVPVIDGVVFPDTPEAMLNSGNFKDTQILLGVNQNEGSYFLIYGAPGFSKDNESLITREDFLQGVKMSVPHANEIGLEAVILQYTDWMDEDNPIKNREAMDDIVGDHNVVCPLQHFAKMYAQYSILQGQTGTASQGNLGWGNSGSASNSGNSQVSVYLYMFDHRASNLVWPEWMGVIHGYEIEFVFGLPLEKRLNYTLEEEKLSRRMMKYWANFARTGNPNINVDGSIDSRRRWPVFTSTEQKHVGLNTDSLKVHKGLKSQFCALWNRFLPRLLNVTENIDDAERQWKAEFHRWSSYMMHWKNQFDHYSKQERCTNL
As to the kind of experiment: biochemical. The conditions noted are these: for IC50 / remaining activity at 10 µM / Residual activity at 10 µM (%) AChE: 15 min preincubation; for IC50: read-out: IC50 (µM) AChE; for remaining activity at 10 µM: read-out: Residual activity at 10 µM (%) AChE, inhibitor 10 µM; for SI = IC50 of AChE/ IC50 of BChE: selectivity index; for Ki: Lineweaver–Burk and secondary plots, read-out: Ki value for AChE inhibition; for Inhibition type, AChE: Lineweaver–Burk plots; for Residual activity at 10 µM (%) AChE: inhibitor 10 µM. On the procedure:
(§1) AChE assays were performed as described by Ellman et al.[41] with slight modifications. […] DTNB was used for color development, caused by reaction between it and thiocholine (a product of AChE). For inhibitory assays, compounds were preincubated with AChE for 15 min prior to ATCI and DTNB addition. BChE activity was assayed using the same method, but BTCI was used instead of ATCI.
(§2) Inhibitions of the activities of AChE, BChE, MAO-A, and MAO-B by the 15 compounds were investigated at an inhibitor concentration of 10 µM. IC50 values were also determined. […] The inhibition types and Ki values were determined using Lineweaver–Burk Plots and secondary plots.

Another data set has as its target T2, BChE (from equine serum) (Equus caballus, UniProt P81908).
T2 construct: BChE (from equine serum); purchased Sigma-Aldrich; host or cells: equine serum
As to the kind of experiment: biochemical. The note with it: for IC50: read-out: IC50 (µM) BChE. On the procedure:
as §1, §2

Another data set deals with T3, recombinant human MAO-A (Homo sapiens, UniProt P21397).
T3 construct: purchased Sigma-Aldrich
T3 sequence (P21397 1-527): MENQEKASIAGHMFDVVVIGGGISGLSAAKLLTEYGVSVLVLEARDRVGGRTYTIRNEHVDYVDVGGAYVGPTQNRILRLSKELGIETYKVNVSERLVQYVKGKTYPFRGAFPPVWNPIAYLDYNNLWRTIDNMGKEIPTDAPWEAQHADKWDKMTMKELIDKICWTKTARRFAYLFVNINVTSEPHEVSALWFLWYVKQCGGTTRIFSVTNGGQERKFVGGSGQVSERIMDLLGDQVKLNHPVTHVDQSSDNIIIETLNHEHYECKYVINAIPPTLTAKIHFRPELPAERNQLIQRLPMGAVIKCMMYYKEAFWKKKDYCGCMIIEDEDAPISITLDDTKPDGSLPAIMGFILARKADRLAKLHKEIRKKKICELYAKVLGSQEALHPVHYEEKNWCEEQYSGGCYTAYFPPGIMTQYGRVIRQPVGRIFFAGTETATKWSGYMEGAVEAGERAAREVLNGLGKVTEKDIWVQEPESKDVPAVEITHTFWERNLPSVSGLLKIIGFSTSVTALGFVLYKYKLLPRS
As to the kind of experiment: MAO-A inhibition assay (kynuramine). The conditions noted are these: inhibitor 10 µM; for remaining activity at 10 µM: read-out: Residual activity at 10 µM (%) MAO-A. It is filed as biochemical. On the procedure: as §1, §2

In data set [6] the target is T4, BChE (Equus caballus, UniProt P81908).
T4 construct: BChE (from equine serum); purchased Sigma-Aldrich; host or cells: equine serum
T4 sequence (P81908 whole entry): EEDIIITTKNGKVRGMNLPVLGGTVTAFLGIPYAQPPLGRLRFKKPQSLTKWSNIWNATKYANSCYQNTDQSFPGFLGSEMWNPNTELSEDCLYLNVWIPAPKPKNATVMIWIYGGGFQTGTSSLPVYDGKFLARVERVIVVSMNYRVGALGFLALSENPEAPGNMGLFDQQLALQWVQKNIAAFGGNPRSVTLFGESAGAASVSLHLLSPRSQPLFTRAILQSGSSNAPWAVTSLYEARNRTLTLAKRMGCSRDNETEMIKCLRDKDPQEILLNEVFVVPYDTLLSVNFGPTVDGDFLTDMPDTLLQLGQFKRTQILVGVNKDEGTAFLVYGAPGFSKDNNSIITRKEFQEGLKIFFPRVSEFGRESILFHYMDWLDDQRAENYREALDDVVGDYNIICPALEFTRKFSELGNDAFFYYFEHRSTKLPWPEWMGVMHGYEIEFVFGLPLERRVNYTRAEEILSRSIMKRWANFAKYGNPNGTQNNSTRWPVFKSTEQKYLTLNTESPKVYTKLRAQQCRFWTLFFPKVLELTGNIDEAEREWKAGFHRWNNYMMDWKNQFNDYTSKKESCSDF
As to the kind of experiment: Reversibility of BChE inhibition by dialysis. The data set is classed as biochemical, equine. On the procedure: (§3) Inhibitor reversibilities were examined using the dialysis method, using with AChE or BChE, rather than MAO enzymes. […] Dialysis was conducted for 6 h with stirring and two buffer changes. Residual activities before (AU) and after (AD) dialysis were compared to those of non-treated controls, and reversibility types were determined by comparing AD and AU values.
(§4) For recovery experiments, preincubated enzyme mixtures were dialyzed as described in the text.

In the next data set the target is T5, recombinant human MAO-B (Homo sapiens, UniProt P27338).
T5 construct: purchased Sigma-Aldrich
T5 sequence (P27338 1-520): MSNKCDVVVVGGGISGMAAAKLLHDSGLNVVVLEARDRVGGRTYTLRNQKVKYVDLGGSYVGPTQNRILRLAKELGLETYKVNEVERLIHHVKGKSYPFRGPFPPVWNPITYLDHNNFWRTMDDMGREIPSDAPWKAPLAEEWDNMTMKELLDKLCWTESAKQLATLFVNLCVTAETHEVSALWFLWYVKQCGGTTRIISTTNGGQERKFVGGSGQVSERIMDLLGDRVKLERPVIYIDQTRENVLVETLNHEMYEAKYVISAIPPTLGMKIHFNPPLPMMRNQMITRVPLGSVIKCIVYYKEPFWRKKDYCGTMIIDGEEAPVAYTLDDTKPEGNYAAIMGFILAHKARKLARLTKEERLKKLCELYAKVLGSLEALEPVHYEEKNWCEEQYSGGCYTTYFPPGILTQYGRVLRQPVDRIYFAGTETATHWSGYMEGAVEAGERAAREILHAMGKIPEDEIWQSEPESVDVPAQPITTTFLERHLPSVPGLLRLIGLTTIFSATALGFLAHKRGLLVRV
As to the kind of experiment: MAO-B inhibition assay (benzylamine). The note with it: inhibitor 10 µM; for remaining activity at 10 µM: read-out: Residual activity at 10 µM (%) MAO-B. The data set is classed as biochemical. On the procedure: as §1, §2

The target in data set [7] is T6, AChE (Electrophorus electricus, UniProt O42275).
T6 construct: AChE (Type VI-S; from Electrophorus electricus); purchased Sigma-Aldrich Type VI-S (catalogue number not given)
T6 sequence (O42275 24-633): as the sequence (O42275 24-633) above
As to the kind of experiment: Reversibility of AChE inhibition by dialysis. The data set is classed as biochemical. The conditions noted are these: for Reversibility of AChE inhibition: dialysis method; for Residual AChE activity before dialysis (AU) / Residual AChE activity after dialysis (AD): inhibitor ~ 2 × IC50: PJ13, 20 µM, PJ15, 20 µM, tacrine, 0.54 µM; for Residual AChE activity before dialysis (AU): 30 min preincubation; for Residual AChE activity after dialysis (AD): dialysis 6 h. On the procedure:
as §3, §4

T2 sequence (P81908 whole entry): as the sequence (P81908 whole entry) above

For `C/C=C(/C)C(=O)O[C@H]1[C@H](O)c2cc3ccc(=O)oc3cc2OC1(C)C` [4′-hydroxy Pd–C-III], the IC50 with AChE [1] (from Angelica decursiva) is 1.09 µM; in the data set on BChE [2] (from A. decursiva), 5.78 µM.
Consider `C/C=C(/C)C(=O)O[C@@H]1c2c(ccc3ccc(=O)oc23)OC(C)(C)[C@@H]1OC(=O)C=C(C)C` [PJ5, senecioyl-4′-angeloyl-khellactone], for which, in [3], the Anti-inflammatory effects result is “potent”. For the same molecule, the Toxicity result in data set [4] was “non-toxic”. Further, the IC50 in data set [5] is more than 40 µM; on BChE (from equine serum) (15 min preincubation), 7.22 µM and 7.2 µM. The results for the remaining activity at 10 µM (in data set [5]; at recombinant human MAO-A; on recombinant human MAO-B) were 96 ± 2.83%, 84.7 ± 9.3% and 96 ± 0.52%, respectively. For the same molecule, the “SI = IC50 of AChE/ IC50 of BChE” value in data set [5] was more than 5.54. Moreover, the Ki at BChE (from equine serum) (Lineweaver–Burk and secondary plots, read-out: Ki value for BChE inhibition) is 4.16 µM. Besides, the “Inhibition type, BChE” value on BChE (from equine serum) (Lineweaver–Burk plots) was “mixed-type”. Moreover, the “Reversibility of BChE inhibition” value at BChE [6] (dialysis method) is “reversible”. Moreover, on BChE [6] (inhibitor ~ 2 × IC50: PJ5, 14 µM, tacrine, 0.54 µM, 30 min preincubation), the “Residual BChE activity before dialysis (AU)” value was found to be 41.2%. Besides, on BChE [6] (inhibitor ~ 2 × IC50: PJ5, 14 µM, tacrine, 0.54 µM, dialysis 6 h), the “Residual BChE activity after dialysis (AD)” value is given as 86.8%.
As to `C/C=C(/C)C(=O)O[C@@H]1[C@H](OC(=O)C(C)CC)c2c(ccc3ccc(=O)oc23)OC1(C)C` (some centres unmarked) [PJ13, 3′-angeloyl-4′-(2-methylbutyryl)khellactone], on AChE [7], the “Reversibility of AChE inhibition” value was “reversible”, the “Residual AChE activity before dialysis (AU)” value worked out at 34.7% and the “Residual AChE activity after dialysis (AD)” value is on record as 72.3%. Further, in data set [3], the Anti-inflammatory effects entry is on record as “potent”. In addition, the Toxicity result in data set [4] is “non-toxic”. In addition, in data set [5], the IC50 worked out at 9.28 ± 0.094 µM; the Ki turned out to be 5.98 µM; the “Inhibition type, AChE” value is “mixed-type”; the remaining activity at 10 µM was less than 50%. Moreover, the “SI = IC50 of AChE/ IC50 of BChE” value in data set [5] was less than 0.23. Moreover, the “Residual activity at 10 µM (%) AChE” value in data set [5] (10 µM) amounted to 48.0 ± 9.40%. The IC50 at BChE (from equine serum) (15 min preincubation) was more than 40 µM. Also, on recombinant human MAO-A, the remaining activity at 10 µM stood at 88.5 ± 5.41%. Further, at recombinant human MAO-B, the remaining activity at 10 µM amounted to 64.6 ± 8.82%.
Turning to `CCC(C)C(=O)O[C@@H]1c2c(ccc3ccc(=O)oc23)OC(C)(C)[C@@H]1OC(=O)CC(C)C` (some centres unmarked) [PJ15, 3′-isovaleryl-4′-(2-methylbutyroyl)khellactone], on AChE [7], the “Reversibility of AChE inhibition” value is “reversible”, the “Residual AChE activity before dialysis (AU)” value is listed as 32.8% and the “Residual AChE activity after dialysis (AD)” value was found to be 68.7%. Moreover, in [3], the Anti-inflammatory effects result is listed as “potent”. In addition, in data set [4], the Toxicity result is on record as “non-toxic”. In data set [5], the concentration for half-maximal inhibition (IC50) was 10 ± 0.48 µM; the Ki stood at 10.4 µM; the “Inhibition type, AChE” value is reported as “mixed-type”; the remaining activity at 10 µM was less than 50%. Moreover, the “SI = IC50 of AChE/ IC50 of BChE” value in [5] was less than 0.25. The “Residual activity at 10 µM (%) AChE” value in data set [5] (10 µM) is reported as 50.0 ± 2.82%. In addition, the IC50 at BChE (from equine serum) (15 min preincubation) was more than 40 µM. Besides, on recombinant human MAO-A, the remaining activity at 10 µM was 76.9 ± 4.2%. Further, on recombinant human MAO-B, the remaining activity at 10 µM was 73.3 ± 7.21%.
For `O=c1ccc2ccc(O)c(O)c2o1` [daphnetin], the IC50 in the data set on AChE [1] (from Artemisia capillaris) was 11.6 µM; in the data set on BChE [2] it was 8.66 µM.
As to `O=c1ccc2cc(O)c(O)cc2o1` [esculetin], the results for the IC50 in the data set on AChE [1] (from Artemisia capillaris) and in the data set with BChE [2] were 6.13 µM and 9.29 µM, respectively.
For Pteryxin [PJ2], in the data set with BChE [2] (converted from μg/mL, from M. purpurea), the IC50 was 33.5 µM. Further, the “IC50 BChE” value in the data set with BChE [2] (from M. purpurea) was 12.96 µg/mL. Also, the “Residual activity at 10 µM (%) AChE” value in [5] stood at 73.4 ± 11.3%. Besides, the “Residual activity at 10 µM (%) BChE” value on BChE (from equine serum) (inhibitor 10 µM, 15 min preincubation) was determined as 87.6 ± 7.14%. At recombinant human MAO-A, the “Residual activity at 10 µM (%) MAO-A” value is on record as 85.4 ± 3.80%. For the same molecule, at recombinant human MAO-B, the “Residual activity at 10 µM (%) MAO-B” value was found to be 79.7 ± 3.47%.

What is called IC50 is the midpoint of a concentration-inhibition curve. The term Ki denotes a measure of affinity in units of concentration, obtained from inhibition or displacement.
